According to EP0423240B1, “MODULATION OF VIRUS-HOST CELL INTERACTIONS USING CYCLIC OLIGOSACCHARIDES” (THE TRUSTEES OF THE UNIVERSITY OF PENNSYLVANIA, priority 1988, dated 1990):

Legend:
HTLV III -B (HIV-1 IIIB) = assay: Fusion inhibition (syncytia) assay, Sup-T1 cells with HTLV-III B infected H9 cells; assay type: cell-based; parameters: key: 4=Full; 0=None; S=Small; M=Medium; L=Large; settings: degree and size of syncytia
Description: (§1) The fusion inhibition (syncytia) assay was performed according to published procedures (Dalgleish et al., Nature 312:763, (1984) and Sodroski et al., Nature 322: 470, (1986)). Sup-T1 cells are favored target cells for their rapid degree of cell fusion when co-cultured with HIV-1 producing cell lines. Cell culture is performed according to the method of Dalgleish et al. (Nature 312:763, (1984)). Sup-T1 cells are plated in 96 well plates (10⁵ cells/well in RPMI 1640 + 10% FCS) and incubated with or without dilutions of beta-cyclodextrin tetradecasulfate (β-CD-TDS or β-CD-14S) at 37°C. HTLV-III B (HIV-1) or WMJ infected H9 cells are then added 5x10⁴/well and the number of multinucleated giant cells per 16 X field counted with a Zeiss inverted field phase contrast microscope after 18 hours. Syncytia are easily identified and inhibition of syncytia by different dilutions of β-CD-TDS can be compared with to β-CD-TDS free preparations. It will be apparent to those skilled in the art, that the formation of syncytia between cells susceptible of infection by HIV-1 and cells expressing HIV-1 envelope glycoproteins represents the same molecular phenomena involved in infection by HIV-1, but is far less hazardous and may be employed to study the mechanisms of infection and the effects of modulating factors on HIB-1 intracellular infection mechanisms, without fear of exposure to the virus itself.
(§2) For screening of different dilutions, 10-fold dilutions of a 150 micromolar solution of β-CD-TDS were prepared and directly added to syncytia assays as described above.
(§3) For the assay of HIV-1 fusion, Supt T1 cells were used as target cells. They fuse rapidly when cocultured with HIV-1 (H9/IIIb) producing cell lines. For the assay of HIV-2 mediated cell fusion, H9 cells were used as target cells. They fuse rapidly when cocultured with HIV-2 (CEMROD-2) producing cell lines. HIV infected cells were plated in 96 well plates (10⁴ cells/well in RPMI 1640 + 10% FCS) and incubated with or without dilution of compounds for 30 minutes at 37°C. Target cells are then added 5 x 10⁵/well and the number of syncytia are qualitatively determined after the incubation periods described in the text.
(§4) In a series of preliminary experiments, a syncytia assay induced by HIV-1 fusion of Sup-T1 cells was performed as described in Section 6.1.1, supra.

HTLV III WMJ = assay: Fusion inhibition (syncytia) assay, Sup-T1 cells with WMJ infected H9 cells; assay type: cell-based, HIV-1; parameters: key to Degree of Syncytia Formation: 4=Full; 0=None; S=Small; M=Medium; L=Large; settings: for Degree of Syncytia Formation: degree and size of syncytia
Description: as §1, §2, §3, §4

Water solubility at 0°C = assay type: physicochemical
Description: The cyclic oligosaccharide derivatives useful in the present invention are highly hydrophilic and therefore very water soluble. A highly hydrophilic character probably is important to allow interaction with cellular surfaces. The hydrophilic activity is likely roughly indicated by the affinity to water, as measured by water solubility. It is important to measure the same at 0°C since at higher temperatures the most suitable derivative have solubilities so high that meaningful measurements are difficult.

HIV-1 [1] = assay: Reverse transcriptase levels of cells already infected with HIV-1; assay type: cell-based; settings: reverse transcriptase activity, virus particle production, virus particle morphology
Description: Virus infected cells were pelleted by centrifugation and 50 µl of culture suprenatant was collected from each well for assay. Culture supernatant (25 µl) was plated in 96 well round bottomed plates and 50 µl of transcriptase cocktail was added to each well. Cocktail is 50 mM Tris-HC1, pH 8.0, 20 mM DTT, 0.6 mM MnC1₂, 60 mM NaC1, 0.05% NP-40, 5 µg/ml dt (oligodeoxythymidilic acid), 10 µg/ml poly A (polyriboadenylic acid), 10 µM dTTP, 1 Ci/mm ³²P dTTP. Plates were then incubated for 60 minutes at 37°C. After incubation samples were spotted onto Whatman DEAE-81 paper, washed and analyzed by counting or direct autoradiography.
In order to determine the specific sites of viral pathogenesis interrupted by the cyclodextrin compounds, we assayed the ability of the cyclodextrins treatment to effect reverse transcriptase levels of cells already infected with HIV-1. In contrast to the results observed when virus was added to uninfected cells, (see supra, Section 6.2.1.) no significant inhibition of reverse transcriptase was observed.

HIV-1 [2] = assay: Viral RNA analysis by dot blot; assay type: cell-based; settings: 1 mM
Description: Virus particles were incubated with target cells in the presence or absence of […] of β-CD-14S. At 72 hours post infection, the cells were washed and dot blot assays were performed to determine the presence or absence of viral RNA production. In (A), target cells were infected in the presence of sulfated β-cyclodextrin (lane A), in the absence of cyclodextrins (lane B), or in the presence of unsubstituted β-cyclodextrin (lane C). 1/2 dilutions of cells are from left to right starting with 10⁶ cell/well utilized. In (B), virally infected cells (+) or uninfected cells (-) were assayed for their ability to produce viral RNA by dot blot analysis. CD = infected cells incubated with 1 mM of β-CD-14S. 1/2 dilutions of cells are from top to bottom starting with 10⁶ cell/well.
Virus treated cells were grown in tissue culture and harvested for assay at 72 hrs. post-infection. The cell concentrations were then adjusted to 1 x 10⁶ cells/m1 with phosphate buffered saline and spotted directly onto prewetted gene screen utilizing a dot blot apparatus. The filter was then fixed in 3% NaC1, 10 mM NaH₂PO₄, (pH 7.2) containing 1% gluteraldehyde at 4°C for 1 hr. The fixed blot was then rinsed three times with proteolytic buffer (50mM EDTA, 0.1 M Tris-HC1 (pH 8.0), 20 µg/ml proteinase K) for 30 minutes at 37°C. The filter was air dried until being probed. A Sall-Xho1 probe derived from the pIIIenv1 plasmid (a generous gift of Dr. J. Sodrofsky) and encoding the envelope region of the HXB2, HIV-1 virus was labeled by the random primer method using standard technology and hybridized to the filter as previously described (Weiner et al., 1986, Cell Immunol. 100:197).
To determine if the cyclodextrins were interfering with steps relevant to viral replication, the ability of these compounds to inhibit viral nucleic acid synthesis was determined. Virus particles were incubated with target cells in the presence or absence of 1 mM of β-CD-14S. At 72 hours post-infection, the cells were washed and dot blot assays were performed to determine the presence or absence of viral RNA production. […]

## beta-cyclodextrin tetradecasulfate [Beta-CD-14S]
HTLV III -B (HIV-1 IIIB); 0.15 micromolar β-CD-TDS
  Degree of Syncytia Formation: 4 L
HTLV III -B (HIV-1 IIIB); 1.50 micromolar β-CD-TDS
  Degree of Syncytia Formation: 4 L
HTLV III -B (HIV-1 IIIB); 15.0 micromolar β-CD-TDS
  Degree of Syncytia Formation: 4 L
HTLV III -B (HIV-1 IIIB); 150 micromolar β-CD-TDS
  Degree of Syncytia Formation: 2 M
HTLV III -B (HIV-1 IIIB); 1500 micromolar β-CD-TDS
  Degree of Syncytia Formation: 0
HTLV III WMJ; 0.15 micromolar β-CD-TDS
  Degree of Syncytia Formation: 4 L
HTLV III WMJ; 0.15 micromolar, text summary of Table 1 (both strains)
  inhibition of syncytia formation: no inhibition of syncytia formation was observed
HTLV III WMJ; 1.50 micromolar β-CD-TDS
  Degree of Syncytia Formation: 3 M
HTLV III WMJ; 15.0 micromolar β-CD-TDS
  Degree of Syncytia Formation: 1S
HTLV III WMJ; 150 micromolar β-CD-TDS
  Degree of Syncytia Formation: 0
HTLV III WMJ; 1500 micromolar β-CD-TDS
  Degree of Syncytia Formation: 0
HTLV III WMJ; between 1.5 micromolar and 1500 micromolar, text summary of Table 1 (both strains)
  inhibition of syncytia: inhibition of syncytia was observed
Water solubility at 0°C
  Solubility 0°C: 42 g/100ml H₂O
HIV-1 [1]
  effects on cells that have already been infected with HIV-1: no detectable effects
HIV-1 [2]; already infected cells incubated with compound
  ability of infected cells to produce viral RNA: not inhibited in their ability to produce viral RNA
HIV-1 [2]; target cells infected in the presence of compound, 72 hours post-infection
  HIV-1 specific RNA: little or no HIV-1 specific RNA was detected
